These results are taken from US20230183216A1, “PYRIDIZIN-3(2H)-ONE DERIVATIVES” (Gilead Sciences, Inc., priority 2021, published 2023).

The target of one assay is T1, PARP7 (Homo sapiens, UniProt Q7Z3E1).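 Note: MSD light signal quantifying PARP7 captured by a plate-immobilized probe, read after 1.5 h equilibration plus 1.5 h with SULFO-TAG anti-GST antibody at room temperature.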
T1 sequence (Q7Z3E1 1-657): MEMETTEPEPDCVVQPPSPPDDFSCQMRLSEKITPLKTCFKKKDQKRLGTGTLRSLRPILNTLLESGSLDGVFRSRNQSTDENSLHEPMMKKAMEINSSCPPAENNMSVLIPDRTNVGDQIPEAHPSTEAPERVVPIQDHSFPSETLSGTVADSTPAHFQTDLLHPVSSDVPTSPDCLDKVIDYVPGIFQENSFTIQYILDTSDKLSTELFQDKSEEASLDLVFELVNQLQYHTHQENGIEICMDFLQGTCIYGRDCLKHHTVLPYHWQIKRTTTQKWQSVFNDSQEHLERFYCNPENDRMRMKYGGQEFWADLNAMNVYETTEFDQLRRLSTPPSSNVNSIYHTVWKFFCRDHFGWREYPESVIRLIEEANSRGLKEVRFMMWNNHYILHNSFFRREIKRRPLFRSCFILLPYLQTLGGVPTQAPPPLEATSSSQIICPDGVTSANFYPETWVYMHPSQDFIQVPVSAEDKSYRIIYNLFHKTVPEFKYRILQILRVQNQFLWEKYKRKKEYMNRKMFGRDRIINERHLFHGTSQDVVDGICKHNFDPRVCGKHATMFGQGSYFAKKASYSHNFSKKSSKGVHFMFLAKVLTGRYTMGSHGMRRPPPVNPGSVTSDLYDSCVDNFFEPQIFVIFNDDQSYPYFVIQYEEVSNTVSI
As to the kind of experiment: biochemical.

Assay [1] concerns STAT1 (phosphorylated at Tyr701) in NCI-H1373 cells. In words: Phospho-STAT1 (Tyr701) LANCE Ultra TR-FRET Detection Assay. It counts as cell-based. The conditions noted are these: Homo sapiens, 48 hours, induction of pSTAT1, normalized to 10 uM positive control and DMSO, 4-parameter fit, read-out: NH1373 pSTAT1 EC50. In a few lines: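 Endogenous STAT1 Tyr701 phosphorylation induced by compound was measured after seeding 30,000 cells/well onto compound-spotted plates and incubating 48 h at 37 °C, 5% CO2. Lysates were incubated with a sandwich antibody pair overnight at room temperature, and TR-FRET emission was read at 665 and 620 nm.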

Bounds are passed on as bounds.

Experimental for PARP7: Probe Displacement Assay for PARP7 Displacement of a biotinylated probe (RBN011147; Wigle et al., Cell Chemical Biology, 2020, pp. 877-887) from the PARP7 NAD+-binding site was measured in vitro using a Mesoscale Discovery electrochemiluminescent assay. […] Next, 10 μl of 10 nM PARP7 protein incubated for 1 hour at room temperature with a dose response curve of each test compound in a Greiner LDV polypropylene plate (#781201) is added to the MSD plate containing the immobilized probe. The interaction is allowed to reach equilibrium for 1.5 hours, and then 10 ul of SULFO-TAG labeled anti-GST antibody (Cat #R32AA-1) is added to each well and allowed to incubate for an additional 1.5 hours at room temperature. Finally, 10 μl of MSD read buffer T (4×, Cat. #R92C-1) is added to each well using a Bravo liquid handler to prevent air bubbles in the wells, and the plates are subsequently read in an MSD instrument. Light intensity is then measured to quantify the amount of PARP7 bound to the immobilized probe on the plate.

With `N#Cc1ccc(N2CCN(C(=O)CCCNc3cc(C(F)(F)F)c(=O)[nH]n3)CC2)nc1` [Example 54, 6-[4-[4-[[6-oxo-5-(trifluoromethyl)-1H-pyridazin-3-yl]amino]butanoyl]piperazin-1-yl]pyridine-3-carbonitrile], the IC50 on PARP7 worked out at 0.408 nM. For the same molecule, the EC50 in assay [1] was 690 nM.

For `O=C([C@@H]1CCN1c1cc(C(F)(F)F)c(=O)[nH]n1)N1CCN(c2ncc(C(F)(F)F)cn2)CC1` [Example 55, 5-(trifluoromethyl)-3-[(2S)-2-[4-[5-(trifluoromethyl)pyrimidin-2-yl]piperazine-1-carbonyl]azetidin-1-yl]-1H-pyridazin-6-one], the IC50 against PARP7 is 0.339 nM. Besides, the EC50 in assay [1] was found to be 282 nM.

Turning to `O=C(CCCN(CC(F)F)c1cc(C(F)(F)F)c(=O)[nH]n1)N1CCN(c2ncc(C(F)(F)F)cn2)CC1` [Example 56, 3-[2,2-difluoroethyl-[4-oxo-4-[4-[5-(trifluoromethyl)pyrimidin-2-yl]piperazin-1-yl]butyl]amino]-5-(trifluoromethyl)-1H-pyridazin-6-one], 0.877 nM corresponded to half-maximal inhibition on PARP7 (IC50). Further, in assay [1], the EC50 turned out to be 452 nM.

Take `O=C([C@@H]1Cc2ccccc2CN1c1cc(C(F)(F)F)c(=O)[nH]n1)N1CCN(c2ncc(C(F)(F)F)cn2)CC1` [Example 57, 5-(trifluoromethyl)-3-[(3S)-3-[4-[5-(trifluoromethyl)pyrimidin-2-yl]piperazine-1-carbonyl]-3,4-dihydro-1H-isoquinolin-2-yl]-1H-pyridazin-6-one]: at PARP7, inhibition was half-maximal at 4.37 nM (IC50). For the same molecule, in assay [1], the 50% effective concentration (EC50) worked out at 1710 nM.

At PARP7, `O=C([C@@H]1CCc2ccccc2N1c1cc(C(F)(F)F)c(=O)[nH]n1)N1CCN(c2ncc(C(F)(F)F)cn2)CC1` [Example 58, 5-(trifluoromethyl)-3-[(2S)-2-[4-[5-(trifluoromethyl)pyrimidin-2-yl]piperazine-1-carbonyl]-3,4-dihydro-2H-quinolin-1-yl]-1H-pyridazin-6-one] gave a half-inhibitory concentration (IC50) of 4.36 nM. The concentration for a half-maximal effect (EC50) in assay [1] is 2110 nM.

At PARP7, `O=C([C@@H]1CCC[C@H](Nc2cc(C(F)(F)F)c(=O)[nH]n2)C1)N1CCN(c2ncc(C(F)(F)F)cn2)CC1` [Example 60, 5-(trifluoromethyl)-3-[[(1S,3R)-3-[4-[5-(trifluoromethyl)pyrimidin-2-yl]piperazine-1-carbonyl]cyclohexyl]amino]-1H-pyridazin-6-one] registered an IC50 of 1.07 nM. Further, the EC50 in assay [1] was no less than 10000 nM.

`O=C([C@H]1CCC[C@H](Nc2cc(C(F)(F)F)c(=O)[nH]n2)C1)N1CCN(c2ncc(C(F)(F)F)cn2)CC1` [Example 61, 5-(trifluoromethyl)-3-[[(1S,3S)-3-[4-[5-(trifluoromethyl)pyrimidin-2-yl]piperazine-1-carbonyl]cyclohexyl]amino]-1H-pyridazin-6-one] registered an IC50 on PARP7 of 1.78 nM. Moreover, the EC50 in assay [1] is no less than 10000 nM.

In the case of `O=C([C@@H]1CC[C@H](Nc2cc(C(F)(F)F)c(=O)[nH]n2)C1)N1CCN(c2ncc(C(F)(F)F)cn2)CC1` [Example 62, 5-(trifluoromethyl)-3-[[(1S,3R)-3-[4-[5-(trifluoromethyl)pyrimidin-2-yl]piperazine-1-carbonyl]cyclopentyl]amino]-1H-pyridazin-6-one], at PARP7, the half-inhibitory concentration (IC50) worked out at 1.29 nM. The 50% effective concentration (EC50) in assay [1] is 2200 nM.

Regarding `O=C(C[C@@H]1CCN(c2cc(C(F)(F)F)c(=O)[nH]n2)C1)N1CCN(c2ncc(C(F)(F)F)cn2)CC1` [Example 67, 3-[(3S)-3-[2-oxo-2-[4-[5-(trifluoromethyl)pyrimidin-2-yl]piperazin-1-yl]ethyl]pyrrolidin-1-yl]-5-(trifluoromethyl)-1H-pyridazin-6-one], it took 0.848 nM to reach half-maximal inhibition on PARP7 (IC50). Also, the concentration giving a half-maximal response (EC50) in assay [1] was 2270 nM.

The molecule `Cc1cc(CCCCC(=O)N2CCN(c3ncc(C(F)(F)F)cn3)CC2)n[nH]c1=O` [Example 68, 5-methyl-3-[5-oxo-5-[4-[5-(trifluoromethyl)pyrimidin-2-yl]piperazin-1-yl]pentyl]-1H-pyridazin-6-one] returned a half-maximal inhibitory concentration (IC50) against PARP7 of 5.66 nM. For the same molecule, the EC50 in assay [1] is 1320 nM.

As to `O=C(CCCCc1n[nH]c(=O)c2c1CCCC2)N1CCN(c2ncc(C(F)(F)F)cn2)CC1` [Example 69, 4-[5-oxo-5-[4-[5-(trifluoromethyl)pyrimidin-2-yl]piperazin-1-yl]pentyl]-5,6,7,8-tetrahydro-2H-phthalazin-1-one], the IC50 against PARP7 turned out to be 0.755 nM. Further, the EC50 in assay [1] amounted to 160 nM.

`O=C(N1CCN(c2ncc(C(F)(F)F)cn2)CC1)C1(CCNc2cc(C(F)(F)F)c(=O)[nH]n2)CC1` [Example 70, 5-(trifluoromethyl)-3-[2-[1-[4-[5-(trifluoromethyl)pyrimidin-2-yl]piperazine-1-carbonyl]cyclopropyl]ethylamino]-1H-pyridazin-6-one] registered a half-inhibitory concentration (IC50) at PARP7 of 0.372 nM. For the same molecule, the concentration for a half-maximal effect (EC50) in assay [1] was determined as 319 nM.

Regarding `CC(C)(CCNc1cc(C(F)(F)F)c(=O)[nH]n1)C(=O)N1CCN(c2ncc(C(F)(F)F)cn2)CC1` [Example 71, 3-[[3,3-dimethyl-4-oxo-4-[4-[5-(trifluoromethyl)pyrimidin-2-yl]piperazin-1-yl]butyl]amino]-5-(trifluoromethyl)-1H-pyridazin-6-one], the half-inhibitory concentration (IC50) at PARP7 stood at 1.33 nM. For the same molecule, the EC50 in assay [1] was 2560 nM.

`O=C(N1CCN(c2ncc(C(F)(F)F)cn2)CC1)C(F)(F)CCNc1cc(C(F)(F)F)c(=O)[nH]n1` [Example 72, 3-[[3,3-difluoro-4-oxo-4-[4-[5-(trifluoromethyl)pyrimidin-2-yl]piperazin-1-yl]butyl]amino]-5-(trifluoromethyl)-1H-pyridazin-6-one]: on PARP7, the IC50 came to 0.497 nM. For the same molecule, the half-maximal effective concentration (EC50) in assay [1] amounted to 206 nM.

`O=C(CCNCc1cc(C(F)(F)F)c(=O)[nH]n1)N1CCN(c2ncc(C(F)(F)F)cn2)CC1` [Example 73, 6-(((3-oxo-3-(4-(5-(trifluoromethyl)pyrimidin-2-yl)piperazin-1-yl)propyl)amino)methyl)-4-(trifluoromethyl)pyridazin-3(2H)-one] yielded an IC50 against PARP7 of 1.79 nM. In assay [1], the 50% effective concentration (EC50) was 2030 nM.

In turn, `O=C([C@@H]1CN(Cc2cc(C(F)(F)F)c(=O)[nH]n2)CCO1)N1CCN(c2ncc(C(F)(F)F)cn2)CC1` [Example 74, 5-(trifluoromethyl)-3-[[(2S)-2-[4-[5-(trifluoromethyl)pyrimidin-2-yl]piperazine-1-carbonyl]morpholin-4-yl]methyl]-1H-pyridazin-6-one] had an IC50 at PARP7 of 2.01 nM. Further, the half-maximal effective concentration (EC50) in assay [1] is 1790 nM.

`O=C([C@H]1CN(Cc2cc(C(F)(F)F)c(=O)[nH]n2)CCO1)N1CCN(c2ncc(C(F)(F)F)cn2)CC1` [Example 75, 5-(trifluoromethyl)-3-[[(2R)-2-[4-[5-(trifluoromethyl)pyrimidin-2-yl]piperazine-1-carbonyl]morpholin-4-yl]methyl]-1H-pyridazin-6-one] showed an IC50 against PARP7 of 5.12 nM. Also, the concentration for a half-maximal effect (EC50) in assay [1] amounted to 1350 nM.

On to `O=C(CCC[C@@H]1CCc2c1n[nH]c(=O)c2C(F)(F)F)N1CCN(c2ncc(C(F)(F)F)cn2)CC1` [Example 78, (R)-7-(4-oxo-4-(4-(5-(trifluoromethyl)pyrimidin-2-yl)piperazin-1-yl)butyl)-4-(trifluoromethyl)-2,5,6,7-tetrahydro-3H-cyclopenta[c]pyridazin-3-one], for which, at PARP7, half-maximal inhibition (IC50) required 0.142 nM. Besides, in assay [1], the EC50 turned out to be 24.1 nM.

Take `O=C(CCC[C@H]1CCc2c1n[nH]c(=O)c2C(F)(F)F)N1CCN(c2ncc(C(F)(F)F)cn2)CC1` [Example 79, (S)-7-(4-oxo-4-(4-(5-(trifluoromethyl)pyrimidin-2-yl)piperazin-1-yl)butyl)-4-(trifluoromethyl)-2,5,6,7-tetrahydro-3H-cyclopenta[c]pyridazin-3-one]: the IC50 on PARP7 worked out at 2.71 nM. In addition, the 50% effective concentration (EC50) in assay [1] was determined as 316 nM.
